From ChEMBL document CHEMBL2074117, “Influence of redox-active compounds and PXR-activators on human MRP1 and MRP2 gene expression” (Toxicology, 2002)

Tests used:
[1] = target: T1, ATP-binding cassette sub-family C member 2 (Homo sapiens, UniProt Q92887); test: TP_TRANSPORTER: RT-PCR in HepG2 cells; assay type: functional, cell-based
[2] = target: T1, ATP-binding cassette sub-family C member 2; test: TP_TRANSPORTER: Western blot, HepG2 cells; assay type: functional, cell-based

T1 sequence (Q92887 whole entry): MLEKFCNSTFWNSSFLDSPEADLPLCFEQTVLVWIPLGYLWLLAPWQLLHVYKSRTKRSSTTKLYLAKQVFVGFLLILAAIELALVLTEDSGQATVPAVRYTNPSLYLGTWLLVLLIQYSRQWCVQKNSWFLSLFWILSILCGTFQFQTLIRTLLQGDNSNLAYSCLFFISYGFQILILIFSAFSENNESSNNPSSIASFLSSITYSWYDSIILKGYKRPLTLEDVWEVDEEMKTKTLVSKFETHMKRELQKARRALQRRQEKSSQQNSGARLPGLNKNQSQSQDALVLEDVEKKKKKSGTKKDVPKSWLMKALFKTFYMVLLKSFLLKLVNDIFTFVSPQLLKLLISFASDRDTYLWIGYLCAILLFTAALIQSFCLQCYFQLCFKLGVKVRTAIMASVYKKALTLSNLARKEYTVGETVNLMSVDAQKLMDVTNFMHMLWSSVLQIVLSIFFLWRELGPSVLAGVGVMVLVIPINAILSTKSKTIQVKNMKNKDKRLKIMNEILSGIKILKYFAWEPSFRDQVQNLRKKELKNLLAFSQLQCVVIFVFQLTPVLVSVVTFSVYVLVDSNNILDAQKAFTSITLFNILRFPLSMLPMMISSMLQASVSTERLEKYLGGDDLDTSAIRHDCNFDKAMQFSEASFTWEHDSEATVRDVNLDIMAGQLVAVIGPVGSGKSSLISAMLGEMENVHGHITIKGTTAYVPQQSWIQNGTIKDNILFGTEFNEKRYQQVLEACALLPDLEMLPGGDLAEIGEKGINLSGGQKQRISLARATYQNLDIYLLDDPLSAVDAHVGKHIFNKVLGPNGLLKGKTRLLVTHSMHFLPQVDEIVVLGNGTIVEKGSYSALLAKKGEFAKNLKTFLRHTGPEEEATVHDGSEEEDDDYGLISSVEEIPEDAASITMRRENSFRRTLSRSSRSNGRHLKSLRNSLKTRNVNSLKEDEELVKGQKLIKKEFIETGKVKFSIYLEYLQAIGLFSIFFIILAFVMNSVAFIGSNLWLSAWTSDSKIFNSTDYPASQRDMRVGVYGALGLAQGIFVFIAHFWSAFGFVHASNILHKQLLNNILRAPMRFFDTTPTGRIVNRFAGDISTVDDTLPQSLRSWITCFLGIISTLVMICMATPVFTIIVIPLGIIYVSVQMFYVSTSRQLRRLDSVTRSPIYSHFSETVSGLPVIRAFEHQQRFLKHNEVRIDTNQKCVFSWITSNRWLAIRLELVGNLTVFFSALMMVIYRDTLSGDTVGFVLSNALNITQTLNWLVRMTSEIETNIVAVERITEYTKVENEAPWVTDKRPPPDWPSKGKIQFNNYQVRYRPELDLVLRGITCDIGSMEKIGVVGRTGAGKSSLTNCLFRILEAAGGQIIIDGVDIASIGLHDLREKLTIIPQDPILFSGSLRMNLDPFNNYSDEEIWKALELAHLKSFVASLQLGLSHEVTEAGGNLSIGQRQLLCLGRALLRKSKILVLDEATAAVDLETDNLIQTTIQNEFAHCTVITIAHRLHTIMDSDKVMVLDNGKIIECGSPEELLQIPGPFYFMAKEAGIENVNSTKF

SMILES | Activity [1] | Activity [2]
Clc1ccccc1C(c1ccccc1)(c1ccccc1)n1ccnc1 [CLOTRIMAZOLE] | inducer [+] | inducer [+]
CC(C)(C)c1cc(O)ccc1O [E319] | inducer [+] | inducer [+]
CO[C@H]1/C=C/O[C@@]2(C)Oc3c(C)c(O)c4c(O)c(c(/C=N/N5CCN(C)CC5)c(O)c4c3C2=O)NC(=O)/C(C)=C\C=C\[C@H](C)[C@H](O)[C@@H](C)[C@@H](O)[C@@H](C)[C@H](OC(C)=O)[C@@H]1C [RIFAMPIN] | inducer [+] | inducer [+]
O[As](O)O [TRIHYDROXYARSENITE(III)] | inducer [+] | inducer [+]
